Reference: article PMC7567501 (Journal of Enzyme Inhibition and Medicinal Chemistry, 2019)
Like-named read-outs stand apart in the source and are kept apart here.

Legend:
[1] = molecular target: T1, Aβ1-42 (Homo sapiens, UniProt P05067); assay: biochemical; details: read-out: Aβ aggregation inhibition, Self-Aβ aggr
T1 construct: Amyloid β-peptide (1–42), Aβ1-42, was purchased from GeneCust; purchased GeneCust
Source text: (§1) The Aβ amyloid plaques are one of the main hallmarks of AD and they result from over production and aggregation of β-amyloid peptide, which can accumulate outside the neurons, by self-mediated or Cu^2+-induced process, interfering with the synaptic impairment, neurotransmission and memory. Therefore, anti-AD drugs have been designed aimed to disrupt and disaggregate the Aβ’s fibrils into monomers, obtaining non-toxic forms of β-secretase’s products. To assess the effect of these new hybrids in the inhibition of amyloid peptide aggregation, a selection of the compounds was in vitro assayed, based on the thioflavin T (ThT) method. Indeed ThT is a histochemical dye able to create ionic or hydrophobic interactions with the peptide β–sheets, the predominant secondary structure of the amyloid fibrils in aqueous solutions[36]. This binding interactions can be monitored by fluorimetry since the presence of ThT-fibrils increases the absorbance and the emission of the ThT dye, and induces red shifts on the absorbance (from 385 to 446 nm) and emission peaks (from 445 to 485 nm)[14]. All the measurements were performed after incubation of the self-mediated and Cu^2+-induced Aβ aggregates in the presence/absence of the herein studied compounds. […]. […] This may be rationalised on the basis of their copper chelating capacity, as previously shown by other metal chelating compounds[14]^,[38]. Furthermore, despite some exceptions (e.g. 20 and 24), the increase in linker length and the chloro TAC substitution induce some small negative effects in the inhibition of Aβ self-aggregation.
(§2) For the study of the β-amyloid (Aβ) aggregation, the ThT fluorescence assay was performed using a Varian Cary Eclipse fluorimeter at the following wavelengths: excitation (446 nm) and emission (485 nm). Amyloid β-peptide (1–42), Aβ1-42, was purchased from GeneCust as a lyophilised powder stored at −20 °C. TEM assays were performed with a Hitachi H8100 transmission electron microscope with a LaB6 filament (200 kV, 10000–20000 × magnification) at MicroLab/IST.
(§3) Among all the methods to measure the aggregation of Aβ1-42, the assay based on Thioflavin T (ThT) is the standard procedure based on the fluorescence of this dye[49]^,[50]. This test is performed with Aβ1-42 peptide previously prepared by dissolving it in 1,1,1,3,3,3–hexafluoro-2-propanol (HFIP), an organic solvent useful to solubilise and monomerize the β–sheet protein aggregates and reserve them in the fridge. Films are re-dissolved in an Eppendorf tube with a fresh solution of a mixture of CH3CN/Na2CO3/NaOH, to have a stable stock solution, and afterwards, added to an optimised fibrillation phosphate buffer. The samples were prepared using MeOH (1 mg/mL) as solvent, followed by incubation in a water bath for 24 h at 37 °C with gentle shaking. After incubation, the samples were added to a 96-well plate (BD Falcon) with 180 µL of 5 µM ThT in 50 mM glycine-NaOH (pH 8.5) buffer. Blank samples were prepared for each concentration in a similar way, devoid of peptide. After 5-min incubation with the dye, the ThT fluorescence was measured at 446 nm (excitation) and 485 nm (emission).

[2] = molecular target: T2, AChE (Electrophorus electricus, UniProt O42275); assay: biochemical; set-up: species or system Electrophorus electricus (electric eel)
T2 construct: extracted from Electrophorus electricus (electric eel); purchased Sigma-Aldrich; host or cells: Electrophorus electricus (extracted)
Protocol: The electronic spectra and the AChE inhibition assays were performed in a 1-cm path length quartz cell with a Perkin Elmer Lambda 35 spectrophotometer equipped with a temperature programmer PTP1 + 1 Peltier System (T = 25.0 ± 0.1 °C). The enzyme AChE 500 U, extracted from Electrophorus electricus (electric eel), was purchased from Sigma-Aldrich.
The enzymatic activity of AChE was determined using an adaptation of the Ellman’s method, as described previously[29]^,[32]. Firstly, a stock solution of AChE was prepared by dissolving enzyme 500 U in 10 mL of tris(hydroxymethyl)aminomethane (TRIS) buffer (50 mM, pH 8). Then, 4–(2-hydroxyethyl)-1-piperazineethanesulfonic acid (HEPES) buffer was used for further dilution of the enzyme solution therefore obtaining the final working solution of AChE. The assay solution consisted of 374 µL of HEPES buffer (50 mM and pH 8.0), a variable volume (10–50 µL) of the compound’s stock solution (1 mg/mL of MeOH), 476 µL of 3 mM bis(3-carboxy-4-nitrophenyl) disulphide (DTNB), 25 µL of AChE stock solution and the necessary amount of methanol to attain the same volume of sample mixture in a 1 mL cuvette. After mixing, samples were left to incubate for 15 min and then 75 µL of 16 mM acetylthiocholine iodide (AChI) solution was added and immediately the reaction was monitored at 405 nm for 5 min. Firstly, enzyme activity was determined by measuring the rate of enzymatic reaction in solution by recording absorbance (with or without enzyme) at 405 nm. To calculate the percent inhibition of AChE, the enzyme activity in the presence of increasing concentrations of the test compound, as well as for a blank reaction (methanol without compounds), were measured at 405 nm.
Where v1is the initial reaction rate in the presence of the inhibitor and v0 is the initial rate of the control reaction. The curves of inhibition were obtained using a plot of percentage of enzymatic inhibition versus inhibitor concentration, and a calibration curve was obtained from which the linear regression parameters were obtained.

[3] = test system: SH-SY5Y cells; assay: Dose-response screening for non-toxic concentrations, MTT reduction assay; format: cell-based, human; details: 10 µM to 40 µM, 25 h
Protocol: The neuroprotective effect of these new multi-target drugs designed for AD was evaluated using SH-SY5Y cells treated with Aβ1-42 peptides or ascorbate/iron. For each compound we performed a dose-response curve to select a non-toxic concentration (Figure 7).
Figure 7. Dose-response screening to select non-toxic concentrations of TAC-BF hybrids. Cells were treated with varying concentration of TAC-BF conjugates (from 10 μM to 40 μM) for 25 h and cell viability was determined using the MTT reduction assay.
SH-SY5Y human neuroblastoma cell line (ATCC-CRL-2266) is grown in Dulbecco’s modified Eagle’s medium (DMEM), and were obtained from Gibco-Invitrogen (Life Technologies Ltd, UK) with 10% heat inactivated foetal calf serum, containing 50 U/mL penicillin and 50 µg/mL streptomycin, under a humidified atmosphere of 95% air- 5% CO2 at 37 °C. Cells were plated at 0.12 × 10^6 cells/mL for cell viability assay. The tested compounds (18, 19, 20, 21, 23 and 24) were dissolved in DMSO at a concentration of 50 mM and aliquots were stored at −20 °C. We performed a dose-response screening (from 10 µM to 40 µM) in order to choose the highest non-toxic concentration. As a result we selected: 20 µM final concentrations for compounds 18, 19, 20 and 23; 20 µM final concentration for compound 19; 35 µM final concentration for compounds 21 and 24. […] The compounds were added to the cell media 1 h before the incubation with Aβ1-42 or L-ascorbic acid/ferrous sulphate. Aβ1-42 or L-ascorbic acid/ferrous sulphate where incubated alone or with the compound for an additional 24 h. Aβ1-42 was prepared as 276.9 µM stock in sterile water and added to the medium at 2.5 µM final concentration. Ferrous sulphate was freshly prepared as 0.36 M stock in water and added to the medium at 500 µM final concentration. L-Ascorbic Acid was freshly prepared as 80 mM stock in water and added to the medium at 5 mM final concentration. Aβ1-42 was purchased from Bachem (Torrance, CA, USA) and ferrous sulphate and L-ascorbic acid from Sigma Chemical Co (St. Louis, MO, USA).
Cell viability was determined by the MTT (3–(4,5-dimethylthiazol-2-yl)-2,5-diphenyltetrazolium bromide) reduction test. In viable cells, the enzyme succinate dehydrogenase metabolises MTT into a formazan that absorbs light at 570 nm. Following the cell treatment protocol, the medium was aspirated and 0.5 mL MTT (0.5 mg/mL) was added to each well. The plate was then incubated at 37 °C for 1 h 30 min protected from light. At the end of the incubation period, the formazan precipitates were solubilised with 0.5 mL of acidic isopropanol (0.04 M HCl/isopropanol). The absorbance was measured at 570 nm[51]. Cell reduction ability was expressed as a percentage of untreated control cells.

[4] = molecular target: T1, Aβ1-42; assay: Inhibition of Cu2+-induced Aβ1-42 aggregation, thioflavin T fluorescence; format: biochemical; details: Aβ42 aggregation with copper (40 µM); inhibitor 80 µM; ThT fluorescence; read-out: Aβ aggregation inhibition, Cu-ind Aβ aggr
Source text: as §1, §2
as §3, with “The samples were prepared using MeOH (1 mg/mL) as solvent, followed by incubation in a water bath for 24 h at 37 °C with gentle shaking. After incubation, the samples were added to a 96-well plate (BD Falcon) with 180 µL of 5 µM ThT in 50 mM glycine-NaOH (pH 8.5) buffer. Blank samples were prepared for each concentration in a similar way, devoid of peptide.” left out

[5] = Radical scavenging (anti-oxidant) activity, DPPH method; format: physicochemical; details: DPPH in methanol, 30 min, room temperature
Protocol: A selection of the newly synthesised hybrids was tested for their radical scavenging activity (anti-oxidant activity, EC50), based on their interaction with the 2,2-diphenyl-1-picrylhydrazyl (DPPH) free radical, as previously described.
The anti-oxidant capacity or, more precisely, radical scavenging activity based on the electron and proton donation ability, was evaluated by the DPPH method previously described[29]^,[46]. To a 2.5 mL solution of DPPH (0.002%) in methanol, solutions of each compound were added in different volumes to obtain different concentrations in a 3.5 mL final volume. The samples were incubated for 30 min at room temperature. The absorbance was measured at 517 nm against the corresponding blank (methanol). The antioxidant activity was calculated by Eq. (1)^29. (1) %AA = ((ADPPH−Asample)/ADPPH) × 100
The tests were carried out in triplicate. The compound concentration providing 50% of antioxidant activity (EC50) was obtained by plotting the antioxidant activity against the compound concentration.

[6] = self-mediated Aβ42 aggregation without copper, inhibitor 80 µM, ThT fluorescence
[7] = AChE from Electric eel, mean of five independent experiments, read-out: AChE inhibition IC50

T1 sequence (P05067 672-713 limits assumed): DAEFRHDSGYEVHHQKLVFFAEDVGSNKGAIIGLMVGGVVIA
T2 sequence (O42275 24-633): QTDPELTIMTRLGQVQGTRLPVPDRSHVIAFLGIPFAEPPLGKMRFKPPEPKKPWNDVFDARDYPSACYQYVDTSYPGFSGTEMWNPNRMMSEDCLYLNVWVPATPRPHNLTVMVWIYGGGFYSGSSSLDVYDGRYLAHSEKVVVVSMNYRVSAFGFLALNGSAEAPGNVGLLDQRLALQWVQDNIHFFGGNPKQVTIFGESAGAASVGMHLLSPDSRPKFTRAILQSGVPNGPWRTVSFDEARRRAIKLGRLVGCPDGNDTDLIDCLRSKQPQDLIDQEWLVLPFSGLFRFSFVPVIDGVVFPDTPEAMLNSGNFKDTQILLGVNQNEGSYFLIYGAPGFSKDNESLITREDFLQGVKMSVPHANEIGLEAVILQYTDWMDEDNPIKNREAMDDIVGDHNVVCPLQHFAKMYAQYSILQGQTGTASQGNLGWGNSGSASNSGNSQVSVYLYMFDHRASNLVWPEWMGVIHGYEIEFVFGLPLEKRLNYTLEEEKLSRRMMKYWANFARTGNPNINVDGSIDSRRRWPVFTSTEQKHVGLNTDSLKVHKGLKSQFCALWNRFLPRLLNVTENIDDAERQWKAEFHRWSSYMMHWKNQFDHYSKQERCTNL

Structure (SMILES) | inhibition at 80 µM [1, 6] [%] | IC50 [2, 7] [nM] | also measured
O=C(NCCCNc1c2c(nc3ccccc13)CCCC2)c1cc2ccccc2o1 [Compound 13, N-(3-((1,2,3,4-tetrahydroacridin-9-yl)amino)propyl)benzofuran-2-carboxamide] | 60.6 | 580 | 
O=C(NCCCCNc1c2c(nc3ccccc13)CCCC2)c1cc2ccccc2o1 [Compound 14, N-(4-((1,2,3,4-tetrahydroacridin-9-yl)amino)butyl)benzofuran-2-carboxamide] | 51.5 | 720 | 
O=C(NCCCNc1c2c(nc3cc(Cl)ccc13)CCCC2)c1cc2ccccc2o1 [Compound 15, N-(3-((6-chloro-1,2,3,4-tetrahydroacridin-9-yl)amino)propyl)benzofuran-2-carboxamide] | 51 | 120 | 
O=C(NCCCCNc1c2c(nc3cc(Cl)ccc13)CCCC2)c1cc2ccccc2o1 [Compound 16, N-(4-((6-chloro-1,2,3,4-tetrahydroacridin-9-yl)amino)butyl)benzofuran-2-carboxamide] | 43 | 340 | 
COc1cccc2cc(C(=O)NCCCNc3c4c(nc5ccccc35)CCCC4)oc12 [Compound 17, 7-Methoxy-N-(3-((1,2,3,4-tetrahydroacridin-9-yl)amino)propyl)benzofuran-2-carboxamide] | 57.5 | 360 | 
COc1cccc2cc(C(=O)NCCCCNc3c4c(nc5ccccc35)CCCC4)oc12 [Compound 18, 7-Methoxy-N-(4-((1,2,3,4-tetrahydroacridin-9-yl)amino)butyl)benzofuran-2-carboxamide] |  |  | highest non-toxic concentration selected from dose-response screening [3]: 20 µM; inhibition at 80 µM [1]: 51.9%; IC50 [2]: 760 nM
O=C(NCCCCNc1c2c(nc3ccccc13)CCCC2)c1cc2cccc(O)c2o1 [Compound 22, 7-Hydroxy-N-(4-((1,2,3,4-tetrahydroacridin-9-yl)amino)butyl)benzofuran-2-carboxamide] | 30.4 | 980 | inhibition at 80 µM [4]: 54%
Nc1c2c(nc3ccccc13)CCCC2 [TAC, tacrine, reference compound] |  |  | inhibition at 80 µM [1]: 20%; Radical scavenging activity EC50 (DPPH) [5]: weak activity
